# Data taken from article PMC3457943, “Inhibition of poly(ADP-ribose) Polymerase Interferes with Trypanosoma cruzi Infection and Proliferation of the Parasite” (PLoS ONE, 2012).
# Like-named read-outs stand apart in the source and are kept apart here.
# Experiments:
# T. cruzi amastigotes = system: T. cruzi amastigotes; set-up: method as in PMID 6330132; conditions: millimolar concentrations, mainly axenic amastigote cultures; cited from earlier work
# hPARP-1 = conditions: cited from earlier work
# TcPARP [1] = molecular target: TcPARP (Trypanosoma cruzi, UniProt Q4PQV7); assay: Homogeneous fluorometric TcPARP activity assay (remaining NAD+); format: biochemical; conditions: 10 nM TcPARP, 500 nM NAD+
# Method: (§1) Enzymatic activity was measured using a fluorometric assay, which quantifies the remaining NAD^+ after the enzymatic reaction, [10]. Briefly, TcPARP was incubated with 500 nM NAD^+ in a 96-well U-bottom black propylene plate (Greiner BioOne) in a final volume of 50 µl. The reaction was carried out at 25°C with shaking at 300 rpm using PST-60 HL plus Thermo Shaker (Biosan, Riga, Latvia). The reaction was terminated by the addition of 20 µl of 2 M KOH and 20 µl of 20% acetophenone in ethanol, and plate was incubated at room temperature for 10 minutes. Next, 90 µl of 88% formic acid was added and the plate was incubated at room temperature for 20 minutes. The fluorescence was measured on a Fluoroskan Ascent FL (Thermo Labsystems, Waltham, MA) using excitation at 355 nm and emission at 460 nm. The activity assay was optimized for TcPARP by assaying the effect of pH, DNA concentration, and various additives for the activity of the protein.
# (§2) A small in-house library of known PARP inhibitors was screened to evaluate their inhibitory effect against TcPARP. The inhibitor stock solutions were prepared at 10 mM in 100% DMSO and stored at −20°C, except in the case of 3-aminobenzamide, which was prepared at a stock concentration of 1 M in 100% DMSO. The compounds were screened in duplicates at 10 µM and 1 µM concentrations with separate controls for each including only NAD^+ and the compound, but not TcPARP. The protein concentration in the reactions was 10 nM.
# (§3) The IC50 value for the first generation PARP inhibitor 3-AB was determined as a reference value. The separate data points were measured in quadruplicates. […] The fluorescence signal was converted to inhibition percentage and fitted using sigmoidal dose-response fitting with variable slope (Graphpad Prism). The curves were extrapolated to 0% and 100% of inhibition by setting their inhibitor concentration 2 log units below or above the first and the last inhibitor concentration, respectively.
# T. cruzi epimastigotes [2] = assay: Epimastigote growth inhibition assay (OD 600 nm); format: cell-based, Trypanosoma cruzi
# Method: T. cruzi epimastigotes were grown in LIT complete medium for 4 days up to a parasite density of 10^7 parasites/ml. The culture was placed in 96-well sterile plates in 100 µl aliquots and PARP inhibitors were added. Nifurtimox and β-lapachone were used as control compounds. DMSO control was used at 1% v/v concentration. Optical density of the cultures was determined at 600 nm each day for four days to follow parasite growth. Controls for LIT growth medium bearing no parasites were also performed. In all experiments performed, conditions were tested in triplicates. Significance of the results were analysed with one-way ANOVA using GraphPad Prism version 5.03 for Windows (GraphPad Software).
# T. cruzi epimastigotes [3] = system: T. cruzi epimastigotes; set-up: method as in PMID 17936287; conditions: millimolar concentrations; cited from earlier work
# [4] = system: pADPr formation in T. cruzi epimastigotes; assay: In vivo inhibition of pADPr formation in epimastigotes challenged with hydrogen peroxide (Western blot); format: cell-based, Trypanosoma cruzi; conditions: 30 min pre-incubation, 300 µM hydrogen peroxide 10 min
# Method: Cell viability was assessed by direct microscopic examination.
# Trypanosoma cruzi epimastigotes were grown in LIT complete medium for 4 days up to a parasite density of 10^7 parasites/ml. Parasites were collected by centrifugation at 750×g for 5 minutes and resuspended in PBS-Glucose 2%. T. cruzi epimastigotes were pre-incubated in the presence of inhibitors for 30 minutes and treated with 300 µM hydrogen peroxide for 10 minutes. Cells were harvested by centrifugation at 1500×g, washed with PBS and resuspended in lysis buffer (50 mM Tris–HCl pH 8.0, 1.0 mM EDTA, 10% (v/v) glycerol, 10 mM 2-mercaptoethanol). Protease inhibitors 1 µg/mL trans-epoxysuccinyl-L-leucylamido(4-guanidino) butane (E-64), […], 1 mM phenylmethylsulfonylfluoride (PMSF), and 0.1 mM Na-tosyl-L-lysine chloro-methyl ketone (TLCK) and inhibitor 3-AB (1 mM) were added. Cells were lysed with an Ultrasonic Processor Model W385 Sonicator (Heat Systems-Ultrasonic Inc. Plainview) and the whole extract obtained was used for Western blot. 30 µg of protein were run on 10% SDS–PAGE gel and transferred to Amersham Hybond-ECL nitrocellulose membrane (GE healthcare), according to the manufacturer's instructions. […] The signal was detected with the Western Lightning Plus-ECL (PerkinElmer).
# TcPARP [5] = assay: Homogeneous fluorometric TcPARP activity assay (remaining NAD+); format: biochemical, Trypanosoma cruzi; conditions: TcPARP IC50 versus literature hPARP-1 IC50
# Method: as §1, §2, §3
# [6] = system: pADPr formation in human cells; set-up: method as in earlier work; conditions: cited from earlier work
# [7] = system: Trypanosoma cruzi infection of Vero cells; assay: Trypanosoma cruzi infection of Vero cells; format: cell-based
# Method: (§4) Vero cells were cultured in D-MEM medium (Gibco), supplemented with 2 mM L-glutamine, 10% (v/v) FCS, 100 U/ml penicillin and 100 mg/l streptomycin. The wild type (Sigma-Aldrich) and PARP silenced (sh_PARP) pulmonary adenocarcinoma A549 cell lines were provided by Dr. Virág and Dr. Erdélyi, from the University of Debrecen, Hungary. A549 cells were grown in RPMI-1640 medium (Gibco), supplemented with 2 mM L-glutamine, 1 mM Sodium Pyruvate, 10% (v/v) FCS, 100 U/ml penicillin and 100 mg/l streptomycin.
# Trypomastigotes were collected by centrifugation of the supernatant of previously infected cultures at 1500×g at room temperature for 7 minutes and incubated for 3 hours at 37°C in order to allow the trypomastigotes to move from the pellet into the supernatant. After this period, the supernatant was collected and trypomastigotes were counted in a Neubauer chamber. […] For this, 50 trypomastigotes/cell were added to the medium of 24 hour-old monolayers and incubated for 24 hours at 37°C, after which they were removed by changing the cell culture medium. Infections were performed in the media above indicated, but supplemented with 3% (v/v) FCS.
# The infection was allowed to proceed and growth medium was changed periodically during the first 5 days. […] At the indicated days, cells were fixed and stained by May Grünwald Giemsa technique. Cells were visualized using an Olympus BX41 microscope. Amastigotes and cells were counted using the ImageJ software in at least 7 microscopic fields. […] Alternatively, trypomastigotes in the supernatant of the cell cultures were counted without prior fixation on a Neubauer Chamber at the indicated days. All experiments were performed in triplicates. Significance of the results were analysed with two-way ANOVA using GraphPad Prism version 5.03 for Windows (GraphPad Software).
# [8] = system: Trypanosoma cruzi infection of A549 wild type cells; assay: Trypanosoma cruzi infection of A549 cells; format: cell-based; conditions: 25 nM
# Method: as §4
# Trypomastigotes were collected by centrifugation of the supernatant of previously infected cultures at 1500×g at room temperature for 7 minutes and incubated for 3 hours at 37°C in order to allow the trypomastigotes to move from the pellet into the supernatant. After this period, the supernatant was collected and trypomastigotes were counted in a Neubauer chamber. […]
# The infection was allowed to proceed and growth medium was changed periodically during the first 5 days. […] Amastigotes and cells were counted using the ImageJ software in at least 7 microscopic fields. […] Alternatively, trypomastigotes in the supernatant of the cell cultures were counted without prior fixation on a Neubauer Chamber at the indicated days. […] Significance of the results were analysed with two-way ANOVA using GraphPad Prism version 5.03 for Windows (GraphPad Software).
# Vero cells = assay: Growth of uninfected Vero cells; format: cell-based; conditions: presence or absence of Olaparib
# [9] = read-out: TcPARP pIC50±SE (converted)
# Chain of TcPARP (Trypanosoma cruzi, UniProt Q4PQV7) (Q4PQV7 1-592): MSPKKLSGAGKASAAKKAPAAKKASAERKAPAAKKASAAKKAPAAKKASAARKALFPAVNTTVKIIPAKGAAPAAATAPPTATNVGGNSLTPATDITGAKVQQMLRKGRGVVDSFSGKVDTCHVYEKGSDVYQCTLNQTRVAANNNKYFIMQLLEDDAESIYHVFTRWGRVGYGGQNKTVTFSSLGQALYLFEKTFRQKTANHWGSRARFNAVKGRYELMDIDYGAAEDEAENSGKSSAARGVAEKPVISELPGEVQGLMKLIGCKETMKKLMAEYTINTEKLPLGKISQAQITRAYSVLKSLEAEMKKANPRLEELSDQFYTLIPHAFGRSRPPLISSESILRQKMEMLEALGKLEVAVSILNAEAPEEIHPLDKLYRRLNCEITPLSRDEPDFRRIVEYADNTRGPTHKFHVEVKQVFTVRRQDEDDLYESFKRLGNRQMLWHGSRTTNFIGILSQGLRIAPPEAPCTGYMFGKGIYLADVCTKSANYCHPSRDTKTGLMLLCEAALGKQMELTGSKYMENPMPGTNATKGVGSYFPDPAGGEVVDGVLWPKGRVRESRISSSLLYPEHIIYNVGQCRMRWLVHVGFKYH
structure (smiles),measurement,setting,value
COc1cccc(C(N)=O)c1 [3-methoxybenzamide],inhibition of differentiation of amastigotes to trypomastigotes,T. cruzi amastigotes,able to inhibit differentiation of amastigotes to trypomastigotes
"Cn1cccc1/C=C1\C(=O)NC(=O)c2ccccc21 [BYK204165, (4Z)-4-[(1-methyl-1H-pyrrol-2-yl)methylidene]-1,2,3,4-tetrahydroisoquinoline-1,3-dione]",IC50,hPARP-1,0.045 µM
same,TcPARP pIC50±SE,TcPARP [1],"6.74±0,090"
same,IC50,TcPARP [1]; read-out: TcPARP IC50,0.18 µM
"NC(=O)c1cccc2ncc(-c3ccc(Cl)cc3)nc12 [CNQ, 3-(4-chlorophenyl)quinoxaline-5-carboxamide]",IC50,hPARP-1,0.033 µM
same,IC50,TcPARP [1]; read-out: TcPARP IC50,0.17 µM
same,IC50,TcPARP [1]; [9],0.174 µM
"NC(=O)c1cccc(N)c1 [Compound 3-AB, 3-aminobenzamide]",IC50,hPARP-1,33 µM
same,reduction of parasite growth compared to the control,T. cruzi epimastigotes [2]; 660 µM,approximately 60%
same,reduction of parasite growth compared to the control,T. cruzi epimastigotes [2]; 6.6 mM,approximately 60%
same,IC50,TcPARP [1]; read-out: TcPARP IC50,26 µM
same,IC50,TcPARP [1]; [9],26.3 µM
same,inhibition of differentiation of amastigotes to trypomastigotes,T. cruzi amastigotes,to a lesser extent
same,effect on T. cruzi epimastigote growth,T. cruzi epimastigotes [3],able to reduce T. cruzi epimastigote growth
"Nc1ccc2c3c(cccc13)C(=O)NC2=O [Compound 4-ANI, 8-amino-3-azatricyclo[7.3.1.0^{5,13}]trideca-1(12),5,7,9(13),10-pentaene-2,4-dione]",IC50,hPARP-1,0.022 µM
same,IC50,TcPARP [1]; read-out: TcPARP IC50,0.043 µM
same,IC50,TcPARP [1]; [9],0.0427 µM
same,inhibition of pADPr formation in parasites,[4]; 215 nM,did not show complete inhibition
"Cc1nc2c(c(=O)[nH]1)CSCC2 [DR2313, 2-methyl-1H,4H,5H,7H,8H-thiopyrano[4,3-d]pyrimidin-4-one]",IC50,TcPARP [1]; read-out: TcPARP IC50,1.4 µM
same,IC50,TcPARP [1]; [9],1.38 µM
"Nc1ncnc2c1ncn2[C@@H]1O[C@H](C(=O)N2CCN(CC(=O)Nc3cccc4c3CNC4=O)CC2)[C@@H](O)[C@H]1O [EB-47, 2-(4-{[(2S,3S,4R,5R)-5-(6-amino-9H-purin-9-yl)-3,4-dihydroxyoxolan-2-yl]carbonyl}piperazin-1-yl)-N-(1-oxo-2,3-dihydro-1H-isoindol-4-yl)acetamide]",IC50,hPARP-1,0.045 µM
same,selectivity for TcPARP over hPARP-1,TcPARP [5],approximately five-fold
same,inhibition of pADPr formation in human cells,[6],inhibit pADPr formation
same,inhibition of pADPr formation in parasites,[4]; 43 nM,did not inhibit TcPARP at all
CC1CS(=O)(=O)CCN1/N=C/c1ccc([N+](=O)[O-])o1 (centres unmarked) [Nifurtimox],effect on epimastigote growth,T. cruzi epimastigotes [2]; 2.5 µM,small effect
"O=C(c1cc(Cc2n[nH]c(=O)c3ccccc23)ccc1F)N1CCN(C(=O)C2CC2)CC1 [Olaparib, 4-({3-[(4-cyclopropanecarbonylpiperazin-1-yl)carbonyl]-4-fluorophenyl}methyl)-1,2-dihydrophthalazin-1-one]",number of trypomastigotes in the supernatant,[7]; 25 nM,no significant difference
same,number of amastigotes per cell,[7]; 25 nM in growth medium,decrease in the number of amastigotes per cell
same,"% of Infected Cells, Day 2","[7]; Olaparib 25 nM, mean±SD",38.67±7.68%
same,"% of Infected Cells, Day 4","[7]; Olaparib 25 nM, mean±SD",13.54±3.40 %
same,"% of Infected Cells, Day 6","[7]; Olaparib 25 nM, mean±SD",22.03±2.36 %
same,decrease in growth of the parasites,T. cruzi epimastigotes [2]; 25 nM,50%
same,effect on epimastigote growth,T. cruzi epimastigotes [2]; 25 nM,diminished epimastigote growth significantly
same,IC50,TcPARP [1]; read-out: TcPARP IC50,0.0034 µM
same,IC50,TcPARP [1]; [9],0.00339 µM
same,number of amastigotes per cell,[8]; day 6 post-infection,markedly decreased
same,number of trypomastigotes in the growth medium,[8]; day 9 post-infection,no significant difference
same,growth of uninfected Vero cells,Vero cells,did not alter the growth of the cell line
"CN(C)CC(=O)Nc1ccc2[nH]c(=O)c3ccccc3c2c1 [PJ-34, 2-(dimethylamino)-N-(6-oxo-5,6-dihydrophenanthridin-2-yl)acetamide]",IC50,TcPARP [1]; read-out: TcPARP IC50,0.23 µM
same,IC50,TcPARP [1]; [9],0.224 µM
"O=c1[nH]c2ccccc2c2ccccc12 [Phenanthridinone, 5,6-dihydrophenanthridin-6-one]",IC50,hPARP-1,0.56 µM
same,IC50,TcPARP [1]; read-out: TcPARP IC50,1.6 µM
same,IC50,TcPARP [1]; [9],1.62 µM
"Oc1nc(C2CC2)nc2c1CSCC2 [RF03876, 2-cyclopropyl-5H,7H,8H-thiopyrano[4,3-d]pyrimidin-4-ol]",IC50,TcPARP [1]; read-out: TcPARP IC50,1.3 µM
same,IC50,TcPARP [1]; [9],1.26 µM
"CNCc1ccc(-c2[nH]c3cc(F)cc4c3c2CCNC4=O)cc1 [Rucaparib, 6-fluoro-2-{4-[(methylamino)methyl]phenyl}-3,10-diazatricyclo[6.4.1.0^{4,13}]trideca-1,4(13),5,7-tetraen-9-one]",IC50,TcPARP [1]; read-out: TcPARP IC50,0.025 µM
same,IC50,TcPARP [1]; [9],0.0257 µM
"C[C@]1(c2nc3c(C(N)=O)cccc3[nH]2)CCCN1 [Veliparib, 2-[(2R)-2-methylpyrrolidin-2-yl]-1H-1,3-benzodiazole-4-carboxamide]",Ki,hPARP-1,0.005 µM
same,IC50,TcPARP [1]; read-out: TcPARP IC50,0.083 µM
same,IC50,TcPARP [1]; [9],0.0832 µM
CC1(C)CCC2=C(O1)c1ccccc1C(=O)C2=O [β-lapachone],effect on epimastigote growth,T. cruzi epimastigotes [2]; 2.5 µM,small effect
